US20050153872A1, “Methods and compositions for the treatment of infection” (priority 2004, published 2005)

Legend:
Enterococcus (20) = assay: In vitro antibacterial activity (MIC), clinical isolates; assay type: cell-based; conditions: 20 Enterococcus clinical isolates
Description: (§1) The following experiments were performed by Lab. of Pharmacology, National Sichuan antibiotic industril institute, Chengdu, Sichuan.
(§2) The following agents were used to test the in vitro activity of Ph-SA:
(§3) All the bacterial strains used in the experiments were clinical isolates collected from Sichuan and Beijing in 2002 and identified by West China Hospital, Sichuan University and Chongqing University of Medical Sciences with API system. The following strains were used in the experiments detailed below: Staphylococcus aureus 168 strains (MRSA 80 strains and MSSA 88 strains) Staphylococcus epidermidis 46 strains (MRSE 25 strains and MSSE 21 strains), Enterococcus 20 strains, and Acenetobactor 20 strains. Staphylococcus aureus ATCC25923, 29213 and BAA-42 were used as control strains. Bacterial strains were contacted with one of the above described compounds and MIC50, MIC90 and MICScope were determined.

[1] = tested on: Staphylococcus aureus MRSA strain (80); assay: as above; assay type: cell-based; conditions: 80 MRSA clinical isolates
Description: as §1, §2, §3

[2] = tested on: Staphylococcus aureus MSSA strain (88); assay: as above; assay type: cell-based; conditions: 88 MSSA clinical isolates
Description: as §1, §2, §3

[3] = tested on: Staphylococcus epidermidis MSSE strain (21); assay: as above; assay type: cell-based; conditions: 21 MSSE clinical isolates
Description: as §1, §2, §3

[4] = tested on: Enterococcus faecalis ATCC 700802; assay: microbe, parasite or virus in culture; assay type: cell-based; conditions: Enterococcus faecalis, ATCC700802
[5] = tested on: Enterococcus faecalis ATCC 700802; assay: In vivo protection of infected mice; design: species or system Kungming mice; conditions: mice, i.p. infection 8.0 × 10^6 cfu/ml
Description: (§4) The following experiments were performed by Pharmacology Lab, National Sichuan antibiotic industril institute, Chengdu, Sichuan.
(§5) The agents described above were diluted with sterilized water to final concentrations of 10 mg/L, 5 mg/Land 2.5 mg/L.
(§6) Staphylococcus aureus ATCC BAA-42(MRSA) and enterococcus faecalis ATCC 700802 were used as control strains.
(§7) 170 mice (Kungming mice: 18˜22 g, 85 males and 85 females) were randomly divided into four groups and injected with a fatal dosage of staphylococci, enterococcus and E. coli intraperitoneally. […] Mice were inspected every 24 hours for 7-14 days. Dead mice were counted as positive results. The results are depicted in Table 3 and FIGS. 4 and 5A-B.

[6] = tested on: Staphylococcus aureus MRSA 02-18; assay: In vivo protection of infected mice; design: species or system Kungming mice; conditions: mice, i.p. infection 1.7 × 10^5 cfu/ml
Description: as §4, §5, §6, §7

[7] = tested on: Staphylococcus aureus MRSA BAA-42; assay: In vivo protection of infected mice; design: species or system Kungming mice; conditions: mice, i.p. infection 5.5 × 10^5 cfu/ml
Description: as §4, §5, §6, §7

[8] = tested on: Staphylococcus aureus MRSA BAA-42; assay: microbe, parasite or virus in culture; assay type: cell-based; conditions: Staphylococcus aureus MRSA BAA-42
[9] = tested on: Staphylococcus aureus MRSA 02-18; assay: microbe, parasite or virus in culture; assay type: cell-based; conditions: Staphylococcus aureus MRSA 02-18
[10] = tested on: Staphylococcus aureus ATCC 29213; assay: MIC against challenge strain (Table 3); assay type: cell-based
Escherichia coli 02-1-65 [11] = assay: In vivo protection of infected mice; design: species or system Kungming mice; conditions: i.p. infection 3.3 × 10^5 cfu/ml
Description: as §4
(§8) The agents described above were diluted with sterilized water to final concentrations of 10 mg/L, 5 mg/Land 2.5 mg/L. […]
as §7

[12] = tested on: Staphylococcus aureus ATCC 29213; assay: In vivo protection of infected mice; design: species or system Kungming mice; conditions: i.p. infection 3.6 × 10^5 cfu/ml
Description: as §4, §8, §7

Escherichia coli 02-1-65 [13] = assay: MIC against challenge strain (Table 3); assay type: cell-based
[14] = tested on: ATCC 700671 PRSP (S. pneumoniae); assay: In vivo protection effects of Ph-SP; design: species or system mice; conditions: 5 animals
Description: To assess the in vivo effect of Ph-SP, mice were injected with ATCC 700671 PRSP intraperitoneally, followed by intravenous injections of PH-SP or controls.
One hour after administration of the fatal dose of ATCC 700671 PRSP (10^5 CFU/ml), each mouse was injected through the tail vein with test agents at three dosages as described in Table 4.

ATCC 700802 VRE cells = assay: Ph-EF protection of ATCC 700802 infected mice; assay type: in vivo; conditions: 5 animals
Description: To assess in vivo effects of Ph-EF, mice were injected with a fatal dosage of ATCC 700802 VRE cells intraperitoneally. […] Mice were inspected every 24 hours for 7-14 days. Dead mice would be counted as positive results.

[15] = tested on: S. pneumoniae ATCC 700671 (Penicillin-resistant SP); conditions: 5 ug/ml
[16] = tested on: vancomycin-sensitive Enterococcus ATCC29212; conditions: 3 ug/ml; ATCC 29212 cells
[17] = 1st Time, i.v. treatment after one hour
[18] = 2nd Time (value in parentheses), i.v. treatment

sodium penicillin was tested, and the MIC50 (Enterococcus (20)) was 32 µg/mL, the MIC90 (Enterococcus (20)) was 64 µg/mL and the “MIC Scope” value [1] was 1˜128 mg/l. For the same substance, the MIC50 [2] was 8 µg/mL, the MIC90 [2] was 64 µg/mL and the MIC50 [3] was 4 µg/mL. For the same substance, the MIC90 [3] was 32 µg/mL, the “MIC Scope” value [3] was 0.125˜128 mg/l and the MIC [4] was 2 µg/mL. The ED50 [5, 17] was 3.16 mg/kg, the ED50 [5, 18] was “(3.08) mg/kg” and the ED50 [6, 17] was 7.28 mg/kg. The ED50 [6, 18] was “(11.33) mg/kg”, the ED50 [7, 17] was >10 mg/kg and the ED50 [7, 18] was “(14.71) mg/kg”. The MIC [8] was 8 µg/mL, the MIC [9] was >16 µg/mL and the MIC [10] was 16 µg/mL. For the same substance, the ED50 (Escherichia coli 02-1-65 [11]; [17]) was >30.77 mg/kg, the ED50 (Escherichia coli 02-1-65 [11]; [18]) was “(>30.77) mg/kg” and the ED50 [12, 17] was 10.75 mg/kg. The ED50 [12, 18] was “(9.84) mg/kg”, the MIC (Escherichia coli 02-1-65 [13]) was >128 µg/mL and the “Death distribution in hours 24 h” value ([14]; 5 mg/kg tail vein) was 3. The “Death distribution in hours 48 h” value ([14]; 5 mg/kg tail vein) was 0, the “Death distribution in hours 72 h” value ([14]; 5 mg/kg tail vein) was 0 and the “Death distribution in hours 96 h” value ([14]; 5 mg/kg tail vein) was 0. The “Death distribution in hours 120 h” value ([14]; 5 mg/kg tail vein) was 0, the “Death distribution in hours 144 h” value ([14]; 5 mg/kg tail vein) was 0 and the “Death distribution in hours 168 h” value ([14]; 5 mg/kg tail vein) was 0. For the same substance, the “Number of Death” value ([14]; 5 mg/kg tail vein) was 3, the “Death distribution in hours 24 h” value ([14]; 10 mg/kg tail vein) was 3 and the “Death distribution in hours 48 h” value ([14]; 10 mg/kg tail vein) was 0. The “Death distribution in hours 72 h” value ([14]; 10 mg/kg tail vein) was 0, the “Death distribution in hours 96 h” value ([14]; 10 mg/kg tail vein) was 0 and the “Death distribution in hours 120 h” value ([14]; 10 mg/kg tail vein) was 0. For the same substance, the “Death distribution in hours 144 h” value ([14]; 10 mg/kg tail vein) was 0, the “Death distribution in hours 168 h” value ([14]; 10 mg/kg tail vein) was 0 and the “Number of Death” value ([14]; 10 mg/kg tail vein) was 3. For the same substance, the “Death distribution in hours 24 h” value (ATCC 700802 VRE cells; 5 mg/kg intravenously) was 0, the “Death distribution in hours 48 h” value (ATCC 700802 VRE cells; 5 mg/kg intravenously) was 1 and the “Death distribution in hours 72 h” value (ATCC 700802 VRE cells; 5 mg/kg intravenously) was 1. For the same substance, the “Death distribution in hours 96 h” value (ATCC 700802 VRE cells; 5 mg/kg intravenously) was 1, the “Death distribution in hours 120 h” value (ATCC 700802 VRE cells; 5 mg/kg intravenously) was 0 and the “Death distribution in hours 144 h” value (ATCC 700802 VRE cells; 5 mg/kg intravenously) was 0. For the same substance, the “Death distribution in hours 168 h” value (ATCC 700802 VRE cells; 5 mg/kg intravenously) was 0, the “Number of Death” value (ATCC 700802 VRE cells; 5 mg/kg intravenously) was 3 and the “Death distribution in hours 24 h” value (ATCC 700802 VRE cells; 10 mg/kg intravenously) was 0. The “Death distribution in hours 48 h” value (ATCC 700802 VRE cells; 10 mg/kg intravenously) was 0, the “Death distribution in hours 72 h” value (ATCC 700802 VRE cells; 10 mg/kg intravenously) was 0 and the “Death distribution in hours 96 h” value (ATCC 700802 VRE cells; 10 mg/kg intravenously) was 0. For the same substance, the “Death distribution in hours 120 h” value (ATCC 700802 VRE cells; 10 mg/kg intravenously) was 0, the “Death distribution in hours 144 h” value (ATCC 700802 VRE cells; 10 mg/kg intravenously) was 0 and the “Death distribution in hours 168 h” value (ATCC 700802 VRE cells; 10 mg/kg intravenously) was 0. For the same substance, the “Number of Death” value (ATCC 700802 VRE cells; 10 mg/kg intravenously) was 0, the “inhibition of cell growth” value [15] was “did not have a growth inhibitory effect” and the “inhibition of cell growth” value [16] was “inhibited cell growth”.
